# Laboratory results from article PMC11793105, “A kalihinol analog disrupts apicoplast function and vesicular trafficking in P. falciparum malaria” (Science (New York, N.Y.), 2024).
# Key:
# [1] = test system: P. cynomolgi M/B strain parasites; experiment: P. cynomolgi M/B strain drug assay (Hoechst flow cytometry); assay type: cell-based; details: Plasmodium cynomolgi, harvested 60 hours after initial dosing
# Source text: Detailed information on materials and methods is available in the supplementary materials. […] P. knowlesi assays were quantitatively measured by flow cytometry using SYBR Green I and Mitrotracker Deep Red, as previously described ([84], [85]), on a Beckman Coulter CytoFLEX. Nonhuman primate infections were required to generate P. cynomolgi M/B strain parasites for in vitro testing ([82], [86]). […]
# reduction in weight, aggressive or unexpected animal behavior, animals are immediately euthanized with CO2. If no toxic effects are observed, mice are euthanized with CO2 at the end of […]
# After infection, parasitemia was monitored daily by thick and thin blood films as previously described in Joyner et al. 2019 (86). […]
# dosing. […] The experiment was repeated twice, and each concentration was assessed in […]
# Data analysis The percentage of parasitized erythrocytes was determined by enumerating the number of Hoechst positive events out of the total erythrocytes after excluding non-single cells by forward and side scatter. The percent survival was calculated by averaging the parasitemia in the triplicates for each condition and then dividing by the parasitemia observed in the wells that did not receive drug treatment. The IC50 was then calculated using GraphPad Prism 9 (GraphPad […]
# [2] = test system: P. falciparum HB3 (MRA-155); experiment: SYBR Green I growth inhibition assay, HB3; assay type: cell-based, Plasmodium falciparum; details: early-ring stage, 72 h exposure
# Method: Fig. 1. […] (B) SYBR Green–based dose response assays were conducted on early-ring stage parasites (6 hours after invasion). […] 3D7 WT (blue), NF54 (green), drug-resistant strains Dd2 (red), HB3 (black), W2 (gray), and D10-ACP-GFP (purple) lines (Sigmoidal, 4PL, X is concentration, n ≥ 3, nonlinear regression, CI: 95%). (C) Schematic diagram of the development of P. falciparum after two consecutive erythrocytic cycles. The time points at which MED6-189 was introduced are depicted in green. HPS, hours post synchronization. […] The images depict various developmental stages of the parasite’s intraerythrocytic life cycle. Bordered images represent time points when drug was first introduced (n = 3 biological replicates, P < 0.05).
# Detailed information on materials and methods is available in the supplementary materials. […] P. knowlesi assays were quantitatively measured by flow cytometry using SYBR Green I and Mitrotracker Deep Red, as previously described ([84], [85]), on a Beckman Coulter CytoFLEX. […]
# P. falciparum in vitro SYBR green fluorescence-based assays The anti-malarial activity of individual analogues were evaluated in-vitro against P. falciparum 3D7 (MRA-102, drug […]
# green-I based fluorescence assay. Parasite growth rate and stages of development were determined via microscopy through Giemsa-stained smears of the cultures. […]
compound,measurement,setting,value
[C-]#[N+][C@]1(C)CC[C@H]2[C@@H]([C@@H](C(C)C)CC[C@]2(C)[N+]#[C-])[C@H]1O [MED6-189],IC50,[1],136 ± 56 nM
same,IC50,"[2]; Plasmodium falciparum, HB3, 72 h",23 ± 2 nM
same,IC50,[2],22.8 nM
